The target in assay [1] is T1, Substance-P receptor (Homo sapiens, UniProt P25103). Nature of the assay: Displacement of [125I]-SP from human NK1 receptor expressed in CHO cells at 100 nM.
The target of assay [2] is T1, Substance-P receptor. Description: Displacement of [125I]-SP from human NK1 receptor expressed in CHO cells.
Assay [3] relates to Gerbillinae. Description: Inhibition of GR-73632-induced foot tapping in gerbils at 3 mg/kg, iv after 24 hrs. The assay is classed as functional. The note with it: for inhibition in vivo at 3 mg/kg: Gerbillinae, iv, 24 h; for Inhibition: 3 mg/kg.
Assay [4] relates to Gerbillinae. Description: Inhibition of GR-73632-induced foot tapping in gerbils at 6 mg/kg, iv after 24 hrs. It is filed as functional.
For assay [5], the system named is Gerbillinae. Nature of the assay: Inhibition of GR-73632-induced foot tapping in gerbils at 2 mg/kg, iv. It is filed as functional.
Assay [6] concerns Gerbillinae. Description: Inhibition of GR-73632-induced foot tapping in iv dosed gerbils after 24 hrs. It is filed as functional. The note with it: for ED50: Gerbillinae, iv, 24 h, read-out: ID50 (the source's name).
The test system of assay [7] is Gerbillinae. Nature of the assay: Inhibition of GR-73632-induced foot tapping in iv dosed gerbils. It is filed as functional. The note with it: for ED50: Gerbillinae, iv, read-out: ID50 (the source's name).
For assay [8], the system named is Gerbillinae. Description: Inhibition of GR-73632-induced foot tapping in gerbils at 3 mg/kg, iv. The assay is classed as functional.
The test system of assay [9] is Gerbillinae. Description: Inhibition of GR-73632-induced foot tapping in gerbils at 1 mg/kg, iv. The assay is classed as functional.

A word on the inhibition: it is the percentage by which the read-out fell short of the control. Lower therefore signals a response near the control. As usually defined, the IC50 is the concentration at which inhibition is half-maximal. Low readings indicate higher potency, high ones lower potency. The term inhibition in vivo denotes the share of the control response that was lost under treatment. Read a high inhibition in vivo as a response far below the control. The Inhibition is the drop in the measured response relative to a control, in per cent.

T1 sequence (P25103 whole entry): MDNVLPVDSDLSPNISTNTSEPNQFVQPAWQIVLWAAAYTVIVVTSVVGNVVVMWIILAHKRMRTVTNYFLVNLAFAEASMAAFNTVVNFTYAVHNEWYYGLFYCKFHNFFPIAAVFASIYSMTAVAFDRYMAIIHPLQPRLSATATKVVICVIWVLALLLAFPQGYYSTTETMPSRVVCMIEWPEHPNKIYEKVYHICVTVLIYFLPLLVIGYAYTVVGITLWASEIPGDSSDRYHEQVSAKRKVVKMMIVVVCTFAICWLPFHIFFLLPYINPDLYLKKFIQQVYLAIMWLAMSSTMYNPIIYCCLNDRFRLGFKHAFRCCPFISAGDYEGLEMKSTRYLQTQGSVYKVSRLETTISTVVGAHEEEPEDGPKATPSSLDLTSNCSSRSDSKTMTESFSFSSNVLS

At Substance-P receptor [1], `CC(=O)N1C[C@@H](O[C@@H](C)c2cc(C(F)(F)F)cc(C(F)(F)F)c2)[C@H](c2ccccc2)C1` had an inhibition of 18%.
For `CC1=C(N2C[C@@H](O[C@H](C)c3cc(C(F)(F)F)cc(C(F)(F)F)c3)[C@H](c3ccc(F)cc3)C2)CCC1=O`, the IC50 on Substance-P receptor [2] worked out at 0.13 nM. In the assay with Gerbillinae [3], this molecule showed an inhibition in vivo at 3 mg/kg of 67%.
Consider `C[C@@H](O[C@@H]1CN(C=O)C[C@H]1c1ccc(F)cc1)c1cc(C(F)(F)F)cc(C(F)(F)F)c1`, for which the IC50 at Substance-P receptor [2] came to 0.24 nM. In other words, the sub-nanomolar range.
On to `CC(C)C(=O)N1C[C@@H](O[C@H](C)c2cc(C(F)(F)F)cc(C(F)(F)F)c2)[C@H](c2ccc(F)cc2)C1`, for which the inhibition in vivo at 6 mg/kg in the assay on Gerbillinae [4] was 43%. This molecule yielded an IC50 at Substance-P receptor [2] of 0.15 nM.
`C[C@@H](O[C@@H]1CN(C2=CC(=O)OC2)C[C@H]1c1ccc(F)cc1)c1cc(C(F)(F)F)cc(C(F)(F)F)c1` came in with a 50% inhibitory concentration (IC50) on Substance-P receptor [2] of 0.16 nM. This molecule gave an inhibition in vivo at 3 mg/kg in the assay on Gerbillinae [3] of 67%.
For the molecule `CC1CC(N2C[C@@H](O[C@H](C)c3cc(C(F)(F)F)cc(C(F)(F)F)c3)[C@H](c3ccc(F)cc3)C2)=CC1=O` (stereo in doubt), on Substance-P receptor [2], the IC50 is 0.09 nM. Moreover, in the assay with Gerbillinae [3], the Inhibition was found to be 2%.
On to `C[C@@H](O[C@@H]1CN(C2=CC(=O)N(C)C2)C[C@H]1c1ccc(F)cc1)c1cc(C(F)(F)F)cc(C(F)(F)F)c1`, for which, on Substance-P receptor [2], the IC50 is 0.12 nM. In addition, the inhibition in vivo at 3 mg/kg with Gerbillinae [3] stood at 8%.
On to `C[C@@H](O[C@@H]1CN(C(=O)C(C)(C)C)C[C@H]1c1ccccc1)c1cc(C(F)(F)F)cc(C(F)(F)F)c1`, for which at 6 mg/kg the inhibition in vivo in the assay with Gerbillinae [4] was 45%. On Substance-P receptor [2], this molecule registered an IC50 of 0.18 nM.
On to `CC1CC(=O)C=C1N1C[C@@H](O[C@H](C)c2cc(C(F)(F)F)cc(C(F)(F)F)c2)[C@H](c2ccc(F)cc2)C1` (mixture of isomers), for which the concentration for half-maximal inhibition (IC50) on Substance-P receptor [2] turned out to be 0.11 nM. Testing at 3 mg/kg in the assay with Gerbillinae [3] gave an inhibition in vivo of 79%.
Turning to `CNC(=O)N1C[C@@H](O[C@H](C)c2cc(C(F)(F)F)cc(C(F)(F)F)c2)[C@H](c2ccc(F)cc2)C1`, the inhibition in vivo at 2 mg/kg in the assay on Gerbillinae [5] worked out at 100%. In the assay with Gerbillinae [4], this molecule returned an inhibition in vivo at 6 mg/kg of 77%. This molecule also yielded an IC50 at Substance-P receptor [2] of 0.11 nM. The values for the ED50 with Gerbillinae [6] and with Gerbillinae [7] were 3 mg/kg and 1 mg/kg, respectively.
As for `C[C@@H](O[C@@H]1CN(C2=CC(=O)CC2)C[C@H]1c1ccccc1)c1cc(C(F)(F)F)cc(C(F)(F)F)c1`, the concentration for half-maximal inhibition (IC50) on Substance-P receptor [2] was 0.07 nM. In addition, the inhibition in vivo at 3 mg/kg with Gerbillinae [8] and with Gerbillinae [3] was 100% each time. Besides, the ED50 in the assay with Gerbillinae [6] worked out at 1.1 mg/kg; in the assay with Gerbillinae [7] it was 0.9 mg/kg.
In turn, `C[C@@H](O[C@@H]1CN(C(=O)N2CCOCC2)C[C@H]1c1ccccc1)c1cc(C(F)(F)F)cc(C(F)(F)F)c1` had an inhibition in vivo at 1 mg/kg in the assay on Gerbillinae [9] of 40%. Moreover, the IC50 at Substance-P receptor [2] came to 0.16 nM.
Turning to `CC(=O)N1CCC(C(=O)N2C[C@@H](O[C@H](C)c3cc(C(F)(F)F)cc(C(F)(F)F)c3)[C@H](c3ccc(F)cc3)C2)CC1`, the IC50 at Substance-P receptor [2] was determined as 0.07 nM. In the assay with Gerbillinae [3], this molecule showed an inhibition in vivo at 3 mg/kg of 50%.
For `Cc1cnc(C(=O)N2C[C@@H](O[C@H](C)c3cc(C(F)(F)F)cc(C(F)(F)F)c3)[C@H](c3ccc(F)cc3)C2)cn1`, the IC50 at Substance-P receptor [2] is 0.12 nM. Also, the inhibition in vivo at 3 mg/kg in the assay with Gerbillinae [3] came out at 45%.
The molecule `CCC(=O)N1C[C@@H](O[C@H](C)c2cc(C(F)(F)F)cc(C(F)(F)F)c2)[C@H](c2ccc(F)cc2)C1` came in with an inhibition in vivo at 6 mg/kg in the assay with Gerbillinae [4] of 0%. Besides, on Substance-P receptor [2], the IC50 turned out to be 0.09 nM.
Turning to `CC(C)NC(=O)N1C[C@@H](O[C@H](C)c2cc(C(F)(F)F)cc(C(F)(F)F)c2)[C@H](c2ccc(F)cc2)C1`, the inhibition in vivo at 6 mg/kg with Gerbillinae [4] was 86%. For the same molecule, the inhibition in vivo at 1 mg/kg in the assay with Gerbillinae [9] stood at 64%. The molecule further came in with an IC50 on Substance-P receptor [2] of 0.06 nM. Further, in the assay on Gerbillinae [6], the ED50 worked out at 0.8 mg/kg.
The molecule `C[C@@H](O[C@@H]1CN(C2=CC(=O)C(O)C2)C[C@H]1c1ccc(F)cc1)c1cc(C(F)(F)F)cc(C(F)(F)F)c1` (single isomer, unassigned; diastereomer A) showed an IC50 on Substance-P receptor [2] of 0.22 nM. In addition, the inhibition in vivo at 3 mg/kg with Gerbillinae [8] worked out at 100%. The ED50 in the assay with Gerbillinae [6] stood at 0.7 mg/kg. The molecule also showed an Inhibition in the assay with Gerbillinae [3] of 100%. Besides, the ID50 in the assay on Gerbillinae [7] came out at 0.5 mg/kg.
As for `C[C@@H](O[C@@H]1CN(C2=CC(=O)C(O)C2)C[C@H]1c1ccc(F)cc1)c1cc(C(F)(F)F)cc(C(F)(F)F)c1` (stereo in doubt), the IC50 at Substance-P receptor [2] came out at 0.3 nM. Also, the ID50 in the assay on Gerbillinae [6] turned out to be 0.5 mg/kg; in the assay with Gerbillinae [7] it was 1.1 mg/kg. For the same molecule, the inhibition in vivo at 3 mg/kg in the assay on Gerbillinae [3] came to 95%.
The molecule `C[C@@H](O[C@@H]1CN(C(=O)[C@@H]2CCC(=O)N2C)C[C@H]1c1ccc(F)cc1)c1cc(C(F)(F)F)cc(C(F)(F)F)c1` came in with an IC50 at Substance-P receptor [2] of 0.12 nM. In addition, the ED50 with Gerbillinae [6] is 1.2 mg/kg; in the assay on Gerbillinae [7], 0.6 mg/kg. This molecule also returned an inhibition in vivo at 3 mg/kg with Gerbillinae [3] of 100%.
Take `C[C@@H](O[C@@H]1CN(C2=CC(=O)CC(C)(C)C2)C[C@H]1c1ccccc1)c1cc(C(F)(F)F)cc(C(F)(F)F)c1`: the IC50 at Substance-P receptor [2] amounted to 0.13 nM. In the assay on Gerbillinae [3], this molecule showed an inhibition in vivo at 3 mg/kg of 5%.
Molecule `CC(=O)N1C[C@@H](O[C@H](C)c2cc(C(F)(F)F)cc(C(F)(F)F)c2)[C@H](c2ccccc2)C1` returned an inhibition in vivo at 6 mg/kg in the assay on Gerbillinae [4] of 98%. In addition, the IC50 on Substance-P receptor [2] amounted to 0.09 nM. The ED50 is 3.2 mg/kg in the assay with Gerbillinae [6] and 0.6 mg/kg with Gerbillinae [7].
The molecule `CC(=O)N1C[C@@H](O[C@H](C)c2cc(C(F)(F)F)cc(C(F)(F)F)c2)[C@H](c2ccc(F)cc2)C1` came in with an inhibition in vivo at 6 mg/kg with Gerbillinae [4] of 26%. For the same molecule, the IC50 at Substance-P receptor [2] came to 0.07 nM.
`CC(=O)N1CCN(C(=O)N2C[C@@H](O[C@H](C)c3cc(C(F)(F)F)cc(C(F)(F)F)c3)[C@H](c3ccc(F)cc3)C2)CC1` registered an IC50 at Substance-P receptor [2] of 0.3 nM. Further, at 3 mg/kg the inhibition in vivo in the assay on Gerbillinae [3] was 57%.
Take `C[C@@H](O[C@@H]1CN(C(=O)N2CCn3c(nnc3C(F)(F)F)C2)C[C@H]1c1ccc(F)cc1)c1cc(C(F)(F)F)cc(C(F)(F)F)c1`: the IC50 on Substance-P receptor [2] was 0.47 nM. Testing at 3 mg/kg in the assay on Gerbillinae [3] gave an inhibition in vivo of 66%.
In the same order, the values of `C[C@@H](O[C@@H]1CN(C2=CC(=O)C(C)(C)CC2)C[C@H]1c1ccccc1)c1cc(C(F)(F)F)cc(C(F)(F)F)c1` are 0.18 nM and 12%.
As to `CC1CC(N2C[C@@H](O[C@H](C)c3cc(C(F)(F)F)cc(C(F)(F)F)c3)[C@H](c3ccc(F)cc3)C2)=CC1=O` (single isomer, unassigned; diastereomer A), the IC50 at Substance-P receptor [2] was 0.16 nM. The same molecule gave an Inhibition in the assay with Gerbillinae [3] of 85%.
At Substance-P receptor [2], `C[C@@H](O[C@@H]1CN(C(=O)N(C)C)C[C@H]1c1ccc(F)cc1)c1cc(C(F)(F)F)cc(C(F)(F)F)c1` displayed an IC50 of 0.38 nM.
Turning to `C[C@@H](O[C@@H]1CN(C(=O)[C@@H]2COC(=O)N2)C[C@H]1c1ccc(F)cc1)c1cc(C(F)(F)F)cc(C(F)(F)F)c1`, the IC50 on Substance-P receptor [2] amounted to 0.34 nM. The molecule further showed an inhibition in vivo at 3 mg/kg in the assay on Gerbillinae [3] of 13%.
On to `CCNC(=O)N1C[C@@H](O[C@H](C)c2cc(C(F)(F)F)cc(C(F)(F)F)c2)[C@H](c2ccc(F)cc2)C1`, for which testing at 6 mg/kg with Gerbillinae [4] gave an inhibition in vivo of 93%. In addition, the inhibition in vivo at 1 mg/kg in the assay with Gerbillinae [9] stood at 61%. The IC50 at Substance-P receptor [2] is 0.1 nM. The ED50 in the assay with Gerbillinae [6] is 1 mg/kg.
`C[C@@H](O[C@@H]1CN(C(=O)NC(C)(C)C)C[C@H]1c1ccc(F)cc1)c1cc(C(F)(F)F)cc(C(F)(F)F)c1` gave an inhibition in vivo at 6 mg/kg in the assay on Gerbillinae [4] of 6%. The same molecule had an inhibition in vivo at 1 mg/kg in the assay with Gerbillinae [9] of 28%. The molecule further gave a 50% inhibitory concentration (IC50) on Substance-P receptor [2] of 0.14 nM.
In the case of `C[C@@H](O[C@@H]1CN(C(=O)NCc2cnn[nH]2)C[C@H]1c1ccc(F)cc1)c1cc(C(F)(F)F)cc(C(F)(F)F)c1`, the half-maximal inhibitory concentration (IC50) on Substance-P receptor [2] stood at 0.58 nM. In the assay with Gerbillinae [3], this molecule showed an inhibition in vivo at 3 mg/kg of 24%.

(Values after ChEMBL document CHEMBL1139768, “The discovery of potent, selective, and orally bioavailable hNK1 antagonists derived from pyrrolidine” (Bioorg Med Chem Lett, 2007).)
